Measurements published in patent publication US10570122B2, “Compounds with anti-tumoral activity” (AB Science, priority 2015, dated 2020).

Key:
[1] = system: U87MG; test: CellTiter-Blue cell-based survival/proliferation assay, U87MG; conditions: Homo sapiens, U-87 MG; U87_MG glioblastoma cell line, 48 h
Experimental: (§1) Cell-Based Proliferation Screening of Compounds
(§2) CellTiter-Blue cell-based survival/proliferation assay (Promega G8080) was performed on tumor cell lines. A total of 1·10^4 cells/well/50 μl were seeded in a 96-wells plate. Treatment was initiated by addition of a 2× drug solution of 1/10 serial dilutions ranging from 0 to 10 μM. Cells were grown for 48 h at 37° C. and then incubated with 10 μl/well of Promega CellTiter-Bleue reagent for 4 h at 37° C. The amount of resorufin dye formed was quantified by its fluorescence emission at 590 nm using a scanning multiwell spectrophotometer (OPTIMA, BMG labtech, France). A blank well without cells was used as a background control for the spectrophotometer.

[2] = system: CALU6; test: CellTiter-Blue cell-based survival/proliferation assay, CALU6; conditions: Homo sapiens, Calu-6; CALU6 lung tumor cell line, 48 h
Method in brief: (§3)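 Compounds, diluted tenfold serially over 0–10 μM, are applied to 1·10^4 seeded cells per well for 48 h at 37 °C. Resorufin formed during a further 4 h with CellTiter-Blue is detected by fluorescence emission at 590 nm.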

[3] = system: REC1; test: CellTiter-Blue cell-based survival/proliferation assay, REC1; conditions: Homo sapiens, Lymphoma cell line REC1, 48 h, read-out: Anti-tumoral activity (measured IC50) REC1
Method in brief: as §3

[4] = system: HCT116; test: CellTiter-Blue cell-based survival/proliferation assay, HCT116; conditions: Homo sapiens, HCT-116; HCT116 colorectal tumor cell line, 48 h
Method in brief: as §3

[5] = system: A375; test: CellTiter-Blue cell-based survival/proliferation assay, A375; conditions: Homo sapiens, A-375; A375 melanoma cell line, 48 h
Experimental: as §1, §2

[6] = system: SW579; test: CellTiter-Blue cell-based survival/proliferation assay, SW579; conditions: Homo sapiens; SW579 head & neck tumor cell line, 48 h
Method in brief: as §3

[7] = system: U118; test: CellTiter-Blue cell-based survival/proliferation assay, U118; conditions: Homo sapiens; U118 glioblastoma cell line, 48 h
Experimental: as §1, §2

[8] = system: HL60; test: CellTiter-Blue cell-based survival/proliferation assay, HL60; conditions: Homo sapiens, HL-60, Leukemia cell line HL60, 48 h, read-out: Anti-tumoral activity (measured IC50) HL60
Method in brief: as §3

[9] = system: KARPAS299; test: CellTiter-Blue cell-based survival/proliferation assay, KARPAS299; conditions: Homo sapiens, KARPAS-299, Lymphoma cell line KARPAS299, 48 h, read-out: Anti-tumoral activity (measured IC50) KARPAS299
Method in brief: as §3

[10] = system: BT20; test: CellTiter-Blue cell-based survival/proliferation assay, BT20; conditions: Homo sapiens, BT-20; BT20 breast tumor cell line, 48 h
Method in brief: as §3

[11] = system: AGS; test: CellTiter-Blue cell-based survival/proliferation assay, AGS; conditions: Homo sapiens; AGS stomach tumor cell line, 48 h
Method in brief: as §3

[12] = system: BXPC3; test: CellTiter-Blue cell-based survival/proliferation assay, BXPC3; conditions: Homo sapiens, BXPC-3; BXPC3 pancreas tumor cell line, 48 h
Method in brief: as §3

[13] = system: H1299; test: CellTiter-Blue cell-based survival/proliferation assay, H1299; conditions: Homo sapiens, NCI-H1299; H1299 lung tumor cell line, 48 h
Method in brief: as §3

[14] = system: A4513; test: CellTiter-Blue cell-based survival/proliferation assay, A4513; conditions: Homo sapiens; A4513 Ewing cell line, 48 h
Experimental: as §1, §2

[15] = system: DLD1; test: CellTiter-Blue cell-based survival/proliferation assay, DLD1; conditions: Homo sapiens, DLD-1; DLD_1 colorectal tumor cell line, 48 h
Method in brief: as §3

[16] = system: HGC27; test: CellTiter-Blue cell-based survival/proliferation assay, HGC27; conditions: Homo sapiens, HGC-27; HGC27 stomach tumor cell line, 48 h
Method in brief: as §3

[17] = system: PLCPRF5; test: CellTiter-Blue cell-based survival/proliferation assay, PLCPRF5; conditions: Homo sapiens, PLC-PRF-5; PLC_PRF5 liver tumor cell line, 48 h
Method in brief: as §3

[18] = system: PANC1; test: CellTiter-Blue cell-based survival/proliferation assay, PANC1; conditions: Homo sapiens, PANC-1; PANC_1 pancreas tumor cell line, 48 h
Method in brief: as §3

[19] = system: MELWO; test: CellTiter-Blue cell-based survival/proliferation assay, MELWO; conditions: Homo sapiens; MEL_WO melanoma cell line, 48 h
Experimental: as §1, §2

[20] = system: MDAMB231; test: CellTiter-Blue cell-based survival/proliferation assay, MDAMB231; conditions: Homo sapiens, MDA-MB-231; MDAMB231 breast tumor cell line, 48 h
Method in brief: as §3

[21] = system: U2OS; test: CellTiter-Blue cell-based survival/proliferation assay, U2OS; conditions: Homo sapiens; U2OS osteosarcoma cell line, 48 h
Experimental: as §1, §2

[22] = system: A549; test: CellTiter-Blue cell-based survival/proliferation assay, A549; conditions: Homo sapiens; A549 lung tumor cell line, 48 h
Method in brief: as §3

[23] = system: TOV112D; test: CellTiter-Blue cell-based survival/proliferation assay, TOV112D; conditions: Homo sapiens; TOV112D ovary tumor cell line, 48 h
Method in brief: as §3

[24] = system: DU145; test: CellTiter-Blue cell-based survival/proliferation assay, DU145; conditions: Homo sapiens, DU-145; DU145 prostate tumor cell line, 48 h
Method in brief: as §3

[25] = system: ACHN; test: CellTiter-Blue cell-based survival/proliferation assay, ACHN; conditions: Homo sapiens; ACHN kidney tumor cell line, 48 h
Method in brief: as §3

[26] = system: A498; test: CellTiter-Blue cell-based survival/proliferation assay, A498; conditions: Homo sapiens; A498 kidney tumor cell line, 48 h
Method in brief: as §3

[27] = system: HEP2; test: CellTiter-Blue cell-based survival/proliferation assay, HEP2; conditions: Homo sapiens, HEp-2; HEP2 head & neck tumor cell line, 48 h
Method in brief: as §3

[28] = system: OPM2; test: CellTiter-Blue cell-based survival/proliferation assay, OPM2; conditions: Homo sapiens, OPM-2, Myeloma cell line OPM2, 48 h, read-out: Anti-tumoral activity (measured IC50) OPM2
Method in brief: as §3

[29] = system: HUT78; test: CellTiter-Blue cell-based survival/proliferation assay, HUT78; conditions: Homo sapiens, Lymphoma cell line HUT78, 48 h, read-out: Anti-tumoral activity (measured IC50) HUT78
Method in brief: as §3

[30] = system: PC3; test: CellTiter-Blue cell-based survival/proliferation assay, PC3; conditions: Homo sapiens, PC-3; PC3 prostate tumor cell line, 48 h
Method in brief: as §3

[31] = system: HEPG2; test: CellTiter-Blue cell-based survival/proliferation assay, HEPG2; conditions: Homo sapiens; HEPG2 liver tumor cell line, 48 h
Method in brief: as §3

[32] = system: CLS354; test: CellTiter-Blue cell-based survival/proliferation assay, CLS354; conditions: Homo sapiens, CLS-354; CLS354_4 head & neck tumor cell line, 48 h
Method in brief: as §3

[33] = system: MESSA; test: CellTiter-Blue cell-based survival/proliferation assay, MESSA; conditions: Homo sapiens, MES-SA; MESSA ovary tumor cell line, 48 h
Method in brief: as §3

Measured: IC50

CCOCc1ccc(C)c(Nc2ncc(-c3ccc(-n4cccn4)cc3)s2)c1 [Example 004, (5-Ethoxymethyl-2-methyl-phenyl)-[5-(4-pyrazol-1-yl-phenyl)-thiazol-2-yl]-amine]
> 1 µM: all assays above

Cc1ccc(C(=O)NCCN2CCOCC2)cc1Nc1ncc(-c2ccc(-n3cccn3)cc2)o1 [Example 005, 4-Methyl-N-(2-morpholin-4-yl-ethyl)-3-[5-(4-pyrazol-1-yl-phenyl)-oxazol-2-ylamino]-benzamide]
> 1 µM: all assays above
